In data set [1] the test system is Mycobacterium tuberculosis. Briefly: Antitubercular activity against Mycobacterium tuberculosis H37Rv ATCC 27294 by microplate alamar blue assay. It is filed as functional. For orientation: Resazurin is reduced to fluorescent resorufin, in cell work by metabolically active cells.
The next data set has as its system Pseudomonas aeruginosa. Description: Antibacterial activity against Pseudomonas aeruginosa by microplate alamar blue assay. It is filed as functional.
The subject of a further data set is Enterococcus faecium. Description: Antibacterial activity against Enterococcus faecium by microplate alamar blue assay. It is filed as functional.
A further data set relates to Acinetobacter baumannii. Description: Antibacterial activity against Acinetobacter baumannii by microplate alamar blue assay. Type of data set: functional.
For the next data set, the system named is Staphylococcus aureus. Briefly: Antibacterial activity against Staphylococcus aureus by microplate alamar blue assay. It is filed as functional.
Another data set deals with Klebsiella pneumoniae. Briefly: Antibacterial activity against Klebsiella pneumoniae by microplate alamar blue assay. Type of data set: functional.
The subject of a further data set is Klebsiella aerogenes. Briefly: Antibacterial activity against Enterobacter aerogenes by microplate alamar blue assay. It is filed as functional.
Data set [2] can be described thus: Cytotoxicity against African green monkey Vero cells measured after 3 days by resazurin dye based fluorescence assay. Type of data set: toxicity, cell-based. Particulars: African green monkey (Chlorocebus sabaeus).
Data set [3] deals with Mycobacterium tuberculosis. Description: Antitubercular activity against Mycobacterium tuberculosis KMA 1354 by microplate alamar blue assay. It is filed as functional.
In data set [4] the test system is Mycobacterium tuberculosis. Briefly: Antitubercular activity against Mycobacterium tuberculosis H37Rv by microplate alamar blue assay. It is filed as functional.
Data set [5] has as its system Mycobacterium tuberculosis. Description: Antitubercular activity against Mycobacterium tuberculosis KMA 4244 by microplate alamar blue assay. Type of data set: functional.
Data set [6] relates to Mycobacterium tuberculosis. Description: Bactericidal activity against Mycobacterium tuberculosis H37Rv measured up to 7 days by luminescence assay. Type of data set: functional. Conditions: time <= 7 day.
Data set [7] has as its system Mycobacterium tuberculosis. Briefly: Antitubercular activity against Mycobacterium tuberculosis KMA 5282 by microplate alamar blue assay. Type of data set: functional.
Data set [8] has as its system Mycobacterium tuberculosis. Description: Antitubercular activity against Mycobacterium tuberculosis KMA 3899 by microplate alamar blue assay. Type of data set: functional.
For data set [9], the system named is Mycobacterium tuberculosis. Briefly: Antitubercular activity against Mycobacterium tuberculosis KMA 4439 by microplate alamar blue assay. It is filed as functional.
The test system of a further data set is Mycobacterium avium. Briefly: Antibacterial activity against Mycobacterium avium ATCC 15769 incubated for 6 days by microplate alamar blue assay. Type of data set: functional. Particulars: ATCC 15769, 144 h, time 6 day.
In another data set the test system is Mycobacterium marinum. Briefly: Antibacterial activity against Mycobacterium marinum ATCC 927 incubated for 5 days by microplate alamar blue assay. Type of data set: functional. Conditions: ATCC 927, 120 h, time 5 day.
The test system of data set [10] is Mycobacteroides abscessus. Briefly: Antibacterial activity against Mycobacterium abscessus ATCC 19977 incubated for 3 days by microplate alamar blue assay. It is filed as functional. Particulars: ATCC 19977, 72 h, time 3 day.
In the next data set the test system is Mycobacterium kansasii. Briefly: Antibacterial activity against Mycobacterium kansasii ATCC 12478 incubated for 7 days by microplate alamar blue assay. It is filed as functional. Conditions: ATCC 12478, 168 h, time 7 day.
A further data set relates to Mycobacteroides chelonae. Briefly: Antibacterial activity against Mycobacteroides chelonae ATCC 35752 incubated for 3 days by microplate alamar blue assay. It is filed as functional. Conditions: ATCC 35752, 72 h, time 3 day.

For 17 molecules, MIC90, IC50 and MBC99 results are on record in ChEMBL document CHEMBL6182867, “Discovery of ultra short β-peptoids with selective activity against drug-resistant Mycobacterium tuberculosis” (Eur J Med Chem, 2025).

In brackets after ≈: the same amount, converted by molar mass.

What is called MIC90 is the lowest concentration that inhibits either 90% of growth or 90% of the strains tested, depending on the study. `CC(C)N(C(=O)CN(Cc1cccc2ccccc12)C(=O)CNCc1cccs1)C(C)C` had an MIC90 in data set [1] of 11.6 µg/mL.

For the molecule `O=C(CCNCCC(c1ccccc1)c1ccccc1)N1CCCC1`, in data set [1], the MIC90 came to 23.5 µg/mL.

The molecule `CC(C)N(C(=O)CNCCC(c1ccccc1)c1ccccc1)C(C)C` registered an MIC90 in data set [1] of 9.55 µg/mL.

In [1], `COCCN(CCOC)C(=O)CCNC(=O)CCNCc1cccc2ccccc12` gave an MIC90 of 3.87 µg/mL.

In the case of `C[C@H]1c2cccc(O)c2C(=O)C2=C(O)[C@]3(O)C(=O)C(C(N)=O)=C(O)[C@@H](N(C)C)[C@@H]3[C@@H](O)[C@@H]21` [DOXYCYCLINE ANHYDROUS], the MIC90 was 5.49 µM (≈ 2.44 µg/mL) with Pseudomonas aeruginosa; below 0.195 µM against Enterococcus faecium; below 0.195 µM in the data set with Acinetobacter baumannii; below 0.195 µM against Staphylococcus aureus; 0.34 µM (≈ 0.151 µg/mL) in the data set with Klebsiella pneumoniae; 2.84 µM (≈ 1.26 µg/mL) against Klebsiella aerogenes.

On to `CCN(CC)C(=O)CCNCCC1CCCCCCC1`, for which the MIC90 in [1] came to 12.2 µg/mL.

Molecule `COCCN(CCOC)C(=O)CCNCCC(c1ccccc1)c1ccccc1` showed an MIC90 in data set [1] of 8.9 µg/mL.

Molecule `COCCN(CCOC)C(=O)CCNCC1CCCO1` (stereo unspecified) came in with an MIC90 in data set [1] of 92.8 µg/mL.

As to `CC(C)N(C(=O)CCNCc1cccs1)C(C)C`, the MIC90 in [1] was determined as 43.8 µg/mL.

The molecule `CC(C)N(C(=O)CCN(CC(c1ccccc1)c1ccccc1)C(=O)CCNCC1CCCO1)C(C)C` (stereo unspecified) yielded an MIC90 in [1] of 24.2 µg/mL.

A word on the IC50: it is the midpoint of a concentration-inhibition curve. In data set [2], `Nc1c2c(nc3ccccc13)CCCC2` [TACRINE] displayed an IC50 at 3 days of 90.7 µM.

As for `CC(C)N(C(=O)CNCC(c1ccccc1)c1ccccc1)C(C)C`, the MIC90 in data set [1] was 20.4 µg/mL.

The molecule `COCCN(CCOC)C(=O)CCN(CC1CCCO1)C(=O)CCNCC(c1ccccc1)c1ccccc1` (stereo unspecified) registered an MIC90 in data set [1] of 6.22 µg/mL.

`CC(C)N(C(=O)CN(CC(c1ccccc1)c1ccccc1)C(=O)CNCC1CCCO1)C(C)C` (stereo unspecified) returned an MIC90 in [1] of 24.4 µg/mL.

With `COc1c(N2C[C@@H]3CCCN[C@@H]3C2)c(F)cc2c(=O)c(C(=O)O)cn(C3CC3)c12` [MOXIFLOXACIN], the MIC90 against Pseudomonas aeruginosa was found to be 0.75 µM (≈ 0.301 µg/mL); in data set [3], 0.12 µM (≈ 0.0482 µg/mL); in [1] it was 0.19 µM; in data set [4], 0.29 µM (≈ 0.116 µg/mL); against Enterococcus faecium, 1.58 µM (≈ 0.634 µg/mL); in data set [5], 0.42 µM (≈ 0.169 µg/mL). The MIC90 with Acinetobacter baumannii is below 0.195 µM; in [7], 0.48 µM (≈ 0.193 µg/mL); in the data set with Staphylococcus aureus it was below 0.195 µM; in data set [8], 0.11 µM (≈ 0.0442 µg/mL); in the data set on Klebsiella pneumoniae it was below 0.195 µM; in data set [9], 0.33 µM (≈ 0.132 µg/mL). Also, the MIC90 in the data set on Klebsiella aerogenes is below 0.195 µM. In data set [2], the IC50 at 3 days is above 100 µM. In data set [6], this molecule came in with an MBC99 of 470 µg/mL (≈ 1170 µM).

As for `NNC(=O)c1ccncc1` [ISONIAZID], the MIC90 is above 8 µM against Mycobacterium avium; above 8 µM against Mycobacterium marinum; 0.46 µM (≈ 0.0631 µg/mL) in data set [3]; 0.46 µM in data set [1]; 0.31 µM (≈ 0.0425 µg/mL) in [4]; 1.55 µM (≈ 0.213 µg/mL) in data set [5]. The MIC90 is above 8 µM in data set [10]; 0.98 µM (≈ 0.134 µg/mL) in [7]; above 8 µM in the data set on Mycobacterium kansasii; above 8 µM against Mycobacteroides chelonae; 0.43 µM (≈ 0.059 µg/mL) in [8]; 0.41 µM (≈ 0.0562 µg/mL) in [9]. Moreover, in data set [6], the MBC99 was found to be 250 µg/mL (≈ 1820 µM).

With `COc1nc2ccc(Br)cc2cc1[C@@H](c1ccccc1)[C@@](O)(CCN(C)C)c1cccc2ccccc12` [BEDAQUILINE], inhibition in data set [2] was half-maximal at 51.4 µM (IC50 at 3 days). In addition, the MIC90 in the data set with Mycobacterium avium stood at 0.44 µM (≈ 0.244 µg/mL); in the data set with Mycobacterium marinum it was 0.45 µM (≈ 0.25 µg/mL); in data set [3] it was 0.24 µM (≈ 0.133 µg/mL); in [1], 0.01 µM; in [4], 0.12 µM (≈ 0.0667 µg/mL); in data set [5], 0.24 µM (≈ 0.133 µg/mL). The MIC90 in data set [10] amounted to 0.49 µM (≈ 0.272 µg/mL); in data set [7], 0.24 µM (≈ 0.133 µg/mL); against Mycobacterium kansasii, 0.45 µM (≈ 0.25 µg/mL); in the data set with Mycobacteroides chelonae, 0.48 µM (≈ 0.267 µg/mL); in data set [8], 0.12 µM (≈ 0.0667 µg/mL); in [9], 0.24 µM (≈ 0.133 µg/mL). The same molecule yielded an MBC99 in data set [6] of 150 µg/mL (≈ 270 µM).
